Reference: patent US20240158418A1 (C4 Therapeutics, Inc., priority 2021, published 2024)

biological target: T1, EGFR L858R-T790M (Homo sapiens, UniProt P00533, L858R/T790M); experiment: EGFR degradation, Total EGFR (L858R-specific) HTRF, NCI-H1975; format: cell-based; settings: Table 9B; NCI-H1975 cells, 6 hours, Total EGFR HTRF; read-out: H1975 EGFR DC50
T1 construct: NCI-H1975 (harboring EGFR heterozygous L858R-T790M mutations); host or cells: NCI-H1975
Procedure, shortened: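 Cells in RPMI 1640 + 10% FBS treated 6 h at 37°C with compound, 11-point half-log titration from 10 μM top, in duplicate. pY1068 and total EGFR read by HTRF (pan-EGFR antibody for wild-type A431; L858R-specific for mutants); IC50 for phospho inhibition, DC50 for 50% degradation.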

T1 sequence (P00533 25-1210 T790M/L858R): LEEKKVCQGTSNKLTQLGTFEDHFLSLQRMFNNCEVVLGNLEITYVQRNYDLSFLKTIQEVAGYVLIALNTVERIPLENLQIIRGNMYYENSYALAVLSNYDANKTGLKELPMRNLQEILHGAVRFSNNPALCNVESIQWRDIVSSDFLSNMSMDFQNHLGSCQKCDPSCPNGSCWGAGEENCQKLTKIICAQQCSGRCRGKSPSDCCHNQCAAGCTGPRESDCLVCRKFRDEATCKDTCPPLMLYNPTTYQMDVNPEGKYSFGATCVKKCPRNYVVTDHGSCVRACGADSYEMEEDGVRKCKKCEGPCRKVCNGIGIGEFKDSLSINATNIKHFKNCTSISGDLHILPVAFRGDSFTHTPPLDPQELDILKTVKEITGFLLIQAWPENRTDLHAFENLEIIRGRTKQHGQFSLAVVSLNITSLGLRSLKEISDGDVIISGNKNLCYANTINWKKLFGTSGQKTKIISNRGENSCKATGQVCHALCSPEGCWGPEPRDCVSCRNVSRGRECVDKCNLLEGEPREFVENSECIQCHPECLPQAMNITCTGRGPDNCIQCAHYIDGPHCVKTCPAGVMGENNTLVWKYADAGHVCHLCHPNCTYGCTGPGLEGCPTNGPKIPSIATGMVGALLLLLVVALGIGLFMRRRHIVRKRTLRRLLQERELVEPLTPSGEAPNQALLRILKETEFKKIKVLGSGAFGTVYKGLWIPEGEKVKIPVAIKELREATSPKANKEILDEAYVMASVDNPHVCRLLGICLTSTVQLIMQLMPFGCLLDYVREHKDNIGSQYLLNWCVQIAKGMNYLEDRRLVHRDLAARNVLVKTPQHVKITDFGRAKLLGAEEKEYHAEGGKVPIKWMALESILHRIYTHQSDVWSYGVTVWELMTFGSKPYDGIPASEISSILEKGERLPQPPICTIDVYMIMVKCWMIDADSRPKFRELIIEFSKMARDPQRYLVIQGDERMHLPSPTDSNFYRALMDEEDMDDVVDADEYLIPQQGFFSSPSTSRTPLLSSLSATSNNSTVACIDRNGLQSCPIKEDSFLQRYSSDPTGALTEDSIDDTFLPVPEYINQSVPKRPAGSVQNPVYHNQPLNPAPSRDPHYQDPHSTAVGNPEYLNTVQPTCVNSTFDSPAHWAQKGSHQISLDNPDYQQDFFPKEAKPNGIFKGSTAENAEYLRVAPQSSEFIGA

O=C1CCC(Nc2ccc(N3CCC(O)(CC(=O)N4CC5(C4)CN(c4ccc(-c6cc(F)c7c(c6)C(=O)N(C(C(=O)Nc6nccs6)c6ncn8c6CCC8)C7)cc4)C5)CC3)c(F)c2)C(=O)N1 (stereo not drawn) [Compound 89, 2-(6,7-dihydro-5H-pyrrolo[1,2-c]imidazol-1-yl)-2-(6-(4-(6-(2-(1-(4-((2,6-dioxopiperidin-3-yl)amino)-2-fluorophenyl)-4-hydroxypiperidin-4-yl)acetyl)-2,6-diazaspiro[3.3]heptan-2-yl)phenyl)-4-fluoro-1-oxoisoindolin-2-yl)-N-(thiazol-2-yl)acetamide] and O=C1CCC(Nc2cnc(N3CCC(O)(CC(=O)N4CC5(C4)CN(c4ccc(-c6cc(F)c7c(c6)C(=O)N(C(C(=O)Nc6nccs6)c6ncn8c6CCC8)C7)cc4)C5)CC3)c(F)c2)C(=O)N1 (stereo not drawn) [Compound 90, 2-(6,7-dihydro-5H-pyrrolo[1,2-c]imidazol-1-yl)-2-(6-(4-(6-(2-(1-(5-((2,6-dioxopiperidin-3-yl)amino)-3-fluoropyridin-2-yl)-4-hydroxypiperidin-4-yl)acetyl)-2,6-diazaspiro[3.3]heptan-2-yl)phenyl)-4-fluoro-1-oxoisoindolin-2-yl)-N-(thiazol-2-yl)acetamide] cannot be ordered by DC50: < 50 nM for the first, < 50 nM for the second.

O=C1CCC(Nc2ccc(CC(=O)N3CCC(NC(=O)c4ccc(C#Cc5cc(F)c6c(c5)C(=O)N(C(C(=O)Nc5nccs5)c5ncn7c5CCC7)C6)cn4)CC3)cc2)C(=O)N1 (stereo not drawn) [Compound 93, 5-[2-[2-[1-(6,7-dihydro-5H-pyrrolo[1,2-c]imidazol-1-yl)-2-oxo-2-(thiazol-2-ylamino)ethyl]-7-fluoro-3-oxo-isoindolin-5-yl]ethynyl]-N-[1-[2-[4-[(2,6-dioxo-3-piperidyl)amino]phenyl]acetyl]-4-piperidyl]pyridine-2-carboxamide] and O=C1CC[C@H](Nc2ccc(C3CCN(C(=O)CC4CC5(C4)CN(c4ccc(-c6cc(F)c7c(c6)C(=O)N(C(C(=O)Nc6nccs6)c6ncn8c6CCC8)C7)cc4)C5)CC3)c(F)c2)C(=O)N1 (stereo partly drawn) [Compound 100, 2-(6,7-dihydro-5H-pyrrolo[1,2-c]imidazol-1-yl)-2-(6-(4-(6-(2-(4-(4-(((S)-2,6-dioxopiperidin-3-yl)amino)-2-fluorophenyl)piperidin-1-yl)-2-oxoethyl)-2-azaspiro[3.3]heptan-2-yl)phenyl)-4-fluoro-1-oxoisoindolin-2-yl)-N-(thiazol-2-yl)acetamide] cannot be ordered by DC50: < 50 nM for the first, < 50 nM for the second.

Compared with O=C1CC[C@H](Nc2ccc(C3CCN(CC(=O)N4CC5(C4)CN(c4ccc(-c6cc(F)c7c(c6)C(=O)N(C(C(=O)Nc6nccs6)c6ncn8c6CCC8)C7)cn4)C5)CC3)c(F)c2)C(=O)N1 (stereo partly drawn) [Compound 95, 2-(6,7-dihydro-5H-pyrrolo[1,2-c]imidazol-1-yl)-2-(6-(6-(6-(2-(4-(4-(((S)-2,6-dioxopiperidin-3-yl)amino)-2-fluorophenyl)piperidin-1-yl)acetyl)-2,6-diazaspiro[3.3]heptan-2-yl)pyridin-3-yl)-4-fluoro-1-oxoisoindolin-2-yl)-N-(thiazol-2-yl)acetamide], O=C1CCC(Nc2cc(F)c(N3CCC(CC(=O)N4CC5(C4)CN(c4ccc(-c6cc(F)c7c(c6)C(=O)N(C(C(=O)Nc6nccs6)c6ncn8c6CCC8)C7)cc4)C5)CC3)c(F)c2)C(=O)N1 (stereo not drawn) [Compound 101, 2-(6,7-dihydro-5H-pyrrolo[1,2-c]imidazol-1-yl)-2-(6-(4-(6-(2-(1-(4-((2,6-dioxopiperidin-3-yl)amino)-2,6-difluorophenyl)piperidin-4-yl)acetyl)-2,6-diazaspiro[3.3]heptan-2-yl)phenyl)-4-fluoro-1-oxoisoindolin-2-yl)-N-(thiazol-2-yl)acetamide] is higher in DC50: < 50 nM for the first, 50 to 150 nM for the second.
